In patent publication US12121500B2, “Inhibitors of Bunyaviridae and uses thereof” (priority 2020, dated 2024):
In brackets after ≈: the same amount, converted by molar mass. Where two headings read alike, the source gives them in different places.

Legend:
RVFV strain MP12 = assay: microbe, parasite or virus in culture; format: cell-based, Rift Valley Fever Virus; settings: for EC50: Rift Valley fever virus, Vero, read-out: Estimated EC50
Staphylococcus spp. = assay: Inhibition of Staphylococcus spp. growth, broth microdilution; format: cell-based, S. saprophyticus or S. aureus; settings: Staphylococcus; 16-24 hours, Mueller-Hinton broth; — = no measurable MIC80
Escherichia coli = assay: Inhibition of Escherichia coli growth, broth microdilution; format: cell-based; settings: Escherichia coli; 16-24 hours, Mueller-Hinton broth; — = inactive; read-out: E. coli (MIC80)
[1] = Quantitative cytotoxicity in Vero cells, crystal violet staining of EC50 plates; settings: African green monkey
RVFV [2] = assay: microbe, parasite or virus in culture; format: cell-based, Rift Valley Fever Virus
C. neoformans = assay: Inhibition of C. neoformans growth, limiting dilution assay; format: cell-based, Cryptococcus neoformans; settings: Cryptococcus neoformans
human ribonuclease H1 = molecular target: T1, human ribonuclease H1 (Homo sapiens, UniProt O60930); assay: biochemical; format: biochemical
T1 construct: made in house; host or cells: E. coli
T1 sequence (O60930 1-286): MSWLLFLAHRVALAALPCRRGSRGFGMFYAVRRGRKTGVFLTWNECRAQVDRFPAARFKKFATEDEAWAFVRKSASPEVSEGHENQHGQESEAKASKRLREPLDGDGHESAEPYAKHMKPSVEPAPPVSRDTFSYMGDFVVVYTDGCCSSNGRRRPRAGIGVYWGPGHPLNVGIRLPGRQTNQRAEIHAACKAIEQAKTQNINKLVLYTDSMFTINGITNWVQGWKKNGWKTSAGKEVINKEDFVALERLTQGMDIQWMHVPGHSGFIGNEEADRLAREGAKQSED

[3] = Cytotoxicity in HepDES19 cells, MTS assay; settings: human
in vitro [4] = settings: African green monkey
in vitro [5] = settings: human
RVFV [6] = assay: microbe, parasite or virus in culture; format: cell-based, Rift Valley Fever Virus; settings: Rift Valley fever virus, A549, 24 h
[7] = Rift Valley fever virus, Vero, 24 h, read-out: RVFV (EC50, μM)
[8] = 48 hours at 35° C., YNB-02, read-out: C. neoformans (MIC80)
[9] = HepDES19 cells (HepG2-derived hepatoblastoma cell line)
[10] = 48 h, read-out: C. neoformans (MIC80, μM)

Compound | EC50 (RVFV strain MP12) [µM] | CC50 at 1 day [1] [µM] | EC50 (RVFV [2]; [7]) [µM] | MIC80 (C. neoformans; [8]) [µM] | IC50 (human ribonuclease H1) [µM] | CC50 at 3 days [3, 9] [µM] | CC50 (in vitro [4]) [µM] | further results
CCOC(=O)c1sc(NC(=O)CSc2nnc(Cc3ccccc3)o2)c(C#N)c1C [Compound 6, reference compound] | ≥ 120 | – | – | – | – | – | – | –
O=c1c(O)c(-c2ccc(O)c(O)c2)oc2cc(O)c(O)c(O)c12 [Compound 7, Quercetagetin, reference compound] | ≥ 120 | – | – | – | – | – | – | –
NC(=O)c1c(N)sc2c1CCCCC2 [Compound 22, reference compound] | ≥ 120 | – | – | – | – | – | – | –
CC(C)c1ccc(O)c(=O)c(O)c1 [Compound 46, β-thujaplicinol] | – | > 250 | 13.8 | 8 (≈ 1.44 µg/mL) | – | – | – | MIC80 (Staphylococcus spp.): 20 µM (≈ 3.6 µg/mL); MIC80 (Escherichia coli): 44 µM (≈ 7.93 µg/mL)
CC(C)c1cccc(=O)c(O)c1 [Compound 47, β-thujaplicin, reference compound] | ≥ 120 | – | – | – | – | – | – | activity against RVFV in the primary screen, in words (RVFV strain MP12): inactive
CC(C)c1ccc(O)c(=O)cc1 [Compound 48, γ-thujaplicin, reference compound] | ≥ 120 | – | – | – | – | – | – | activity against RVFV in the primary screen, in words (RVFV strain MP12): inactive
Cc1cc(O)c(=O)c(O)cc1C(=O)c1ccccc1 [Compound 111] | – | > 250 | 19 | 36 (≈ 9.23 µg/mL) | 48 | – | – | –
Cc1cc(O)c(=O)c(O)cc1-c1ccccc1 [Compound 113] | – | > 250 | 10.3 | 24 (≈ 5.48 µg/mL) | 174 | – | – | –
Cc1cc(O)c(=O)c(O)cc1C(=O)c1ccc(-c2ccccc2)cc1 [Compound 118] | – | 248 | 11 | 15 (≈ 4.99 µg/mL) | > 500 | – | – | –
Cc1cc(O)c(=O)c(O)cc1C(=O)C1CCCCC1 [Compound 120] | – | > 250 | 15.6 | 12 (≈ 3.15 µg/mL) | 81 | – | – | –
O=C(O)CC(=O)CC(=O)c1cccs1 [Compound 129, reference compound] | ≥ 120 | – | – | – | – | – | – | –
O=C1c2ccccc2C(=O)N1O [Compound 138, reference compound] | ≥ 120 | – | – | – | – | – | – | –
COC(=O)c1c(C)cc(O)c(=O)c(O)c1O [Compound 196] | – | > 250 | 23.9 | – | 408 | 6 | – | MIC80 (Staphylococcus spp.): 67 µM (≈ 15.2 µg/mL)
CC1=CC(O)N(O)C(O)=C1/C(C)=N/c1ccccc1N (stereo not shown) [Compound 208] | 14 | > 250 | > 120 | – | 194 | – | ≥ 120 | CC50 at 3 days [3]: 14.4 µM; MIC80 (C. neoformans; [10]): 30 µM (≈ 8.26 µg/mL)
Cc1ccc(O)c(=O)c(O)c1 [Compound 210] | 8 | 283 | 14.6 | 15 (≈ 2.28 µg/mL) | 85 | – | ≥ 120 | –
Cc1cc(O)c(=O)c(O)cc1-c1ccc(-c2cccc3ccccc23)cc1 [Compound 234] | 19 | – | – | – | – | – | ≥ 120 | –
O=c1c(O)ccc(-c2ccco2)cc1O [Compound 265] | – | > 250 | 15.4 | 11 (≈ 2.25 µg/mL) | 57 | – | – | MIC80 (Staphylococcus spp.): 30 µM (≈ 6.13 µg/mL)
CC(=O)c1c(C)cc(O)c(=O)c(O)c1Br [Compound 320] | 2 | > 120 | 20.1 | 49 (≈ 13.4 µg/mL) | 37 | 49.5 | – | CC50 (in vitro [5]): ≥ 120 µM; EC50 (RVFV [6]): 90.3 µM
O=C1C=CC(=O)c2ccccc21 [Compound 327] | 2 | 42.9 | 39.7 | 9.1 (≈ 1.44 µg/mL) | 47 | 18.5 | – | CC50 (in vitro [5]): 27.5 µM; EC50 (RVFV [6]): 19.6 µM
CC(=O)c1c(C)cc(O)c(=O)c(O)c1-c1ccccc1 [Compound 330] | 2 | > 300 | 9.5 | 4 (≈ 1.08 µg/mL) | 476 | 56.2 | – | CC50 (in vitro [5]): ≥ 120 µM; MIC80 (Staphylococcus spp.): 44 µM (≈ 11.9 µg/mL); EC50 (RVFV [6]): 42.6 µM
CC(=O)c1c(C)cc(O)c(=O)c(O)c1-c1cccc2ccccc12 [Compound 331] | 2 | 80.4 | 15.8 | 11 (≈ 3.52 µg/mL) | 448 | 36.6 | – | CC50 (in vitro [5]): ≥ 120 µM; MIC80 (Staphylococcus spp.): 67 µM (≈ 21.5 µg/mL); EC50 (RVFV [6]): 17.7 µM

Compound | EC50 (RVFV strain MP12) [µM] | CC50 at 1 day [1] [µM] | EC50 (RVFV [2]; [7]) [µM] | MIC80 (C. neoformans; [8]) [µM] | IC50 (human ribonuclease H1) [µM] | CC50 at 3 days [3, 9] [µM] | CC50 (in vitro [4]) [µM] | further results
COC(=O)c1c(C)cc(O)c(=O)c(O)c1Br [Compound 335] | 3 | > 120 | 40.8 | – | 111 | – | – | CC50 (in vitro [5]): 96.2 µM; EC50 (RVFV [6]): ≥ 120 µM; MIC80 (C. neoformans; [10]): 50 µM (≈ 14.5 µg/mL)
Cc1cc(O)c(=O)c(O)cc1S(=O)(=O)c1ccccc1 [Compound 336] | 3 | 65.8 | 9 | 50 (≈ 14.6 µg/mL) | – | – | – | IC50 (human ribonuclease H1; read-out: Human RNaseH1 (IC50)): 85 µM
Cc1cc(O)c(=O)c(O)cc1C(=O)c1ccc(Br)cc1 [Compound 358] | – | > 250 | 9 | 11 (≈ 3.69 µg/mL) | 43 | 12.5 | – | MIC80 (Escherichia coli): 20 µM (≈ 6.7 µg/mL)
CC(=O)c1c(C)cc(O)c(=O)c(O)c1Cl [Compound 368] | – | > 250 | 25.4 | 24 (≈ 5.49 µg/mL) | 115 | 31 | – | –
CSc1cccc(O)c(=O)c1O [Compound 385] | – | > 250 | 25.2 | 24 (≈ 4.42 µg/mL) | 176 | > 100 | – | –
Cc1cc(O)c(=O)c(O)cc1C(=O)N1CCCCC1 [Compound 390] | 0.1 | > 250 | 11.9 | 11 (≈ 2.9 µg/mL) | 106 | 29.8 | – | CC50 (in vitro [5]): ≥ 120 µM; EC50 (RVFV [6]): 9.37 µM; activity against RVFV in the primary screen, in words (RVFV strain MP12): active
C/C(=N\c1cccc(Oc2ccccc2)c1)c1c(C)cc(=O)n(O)c1O [Compound 515] | 14 | > 120 | 24.3 | 11 (≈ 3.85 µg/mL) | 622 | 71.3 | ≥ 120 | CC50 (in vitro [5]): 93.6 µM; EC50 (RVFV [6]): ≥ 120 µM
C/C(=N\c1ccccc1F)c1c(C)cc(=O)n(O)c1O [Compound 516] | 19 | – | – | – | – | – | ≥ 120 | –
C/C(=N\c1ccc(C(F)(F)F)cc1)c1c(C)cc(=O)n(O)c1O [Compound 517] | 13 | > 120 | > 120 | 24 (≈ 7.83 µg/mL) | 135 | 91 | ≥ 120 | CC50 (in vitro [5]): 71.8 µM; EC50 (RVFV [6]): 95.8 µM
COc1ccc(CO/N=C(\C)c2c[nH]c(=O)[nH]c2=O)cc1 [Compound 522] | ≥ 120 | – | – | – | – | – | 1 | –
Cc1cc(O)c(=O)c(O)cc1C(=O)NCc1ccc(-c2ccccc2)cc1 [Compound 539] | 10 | > 300 | 18.6 | 4.5 (≈ 1.63 µg/mL) | 105 | 3.6 | 71 | MIC80 (Staphylococcus spp.): 38 µM (≈ 13.7 µg/mL)
C/C(=N\c1ccccc1Cl)c1c(C)cc(O)n(O)c1=O [Compound 668] | 11 | > 120 | 14 to 20 | – | 165 | 76.8 | ≥ 120 | CC50 (in vitro [5]): 82 µM; EC50 (RVFV [6]): 35.7 µM; EC50 (RVFV [2]; read-out: RVFV (EC50)): 19.2 µM
COc1ccc(Cl)cc1C(=O)Sc1cccccc1=O [Compound 681] | ≥ 120 | – | – | – | – | – | 2 | –
Cc1ccc(CNC(=O)c2cc(O)c(=O)c(O)cc2C)c(C)c1 [Compound 809] | 17 | – | – | – | – | – | 64 | –
Cc1cc(O)c(=O)c(O)cc1C(=O)Nc1cccc(OCc2ccccc2)c1 [Compound 836] | 13 | – | – | – | – | – | ≥ 120 | –
Cc1ccc(Sc2cccc(O)c(=O)c2O)cc1 [Compound 838] | 8 | > 300 | 12.7 | 1 (≈ 0.26 µg/mL) | 100 | 18.6 | 86 | –
CCCCCCSc1cccc(O)c(=O)c1O [Compound 840] | 14 | > 120 | 31.6 | 1 (≈ 0.254 µg/mL) | 73 | 21.5 | ≥ 120 | CC50 (in vitro [5]): ≥ 120 µM; EC50 (RVFV [6]): 15.4 µM
Cc1cc(O)c(=O)c(O)cc1C(=O)N1CCN(C(=O)C2COc3ccccc3O2)CC1 (stereo not shown) [Compound 876] | – | – | – | – | – | – | ≥ 120 | –
Cc1cc(O)c(=O)c(O)cc1C(=O)N1CCN(c2ccc([N+](=O)[O-])c3nonc23)CC1 [Compound 920] | 19 | – | – | – | – | – | ≥ 120 | –
Cc1cc(O)c(=O)c(O)cc1C(=O)NCc1ccc(N2CCCC2)cc1 [Compound 1019] | 19 | – | – | – | – | – | ≥ 120 | –
CCCCNC(=O)c1cc(O)c(=O)c(O)cc1C [Compound 1039] | 6 | > 120 | 8.9 | 12 (≈ 3.02 µg/mL) | – | – | ≥ 120 | CC50 (in vitro [5]): ≥ 120 µM; EC50 (RVFV [6]): 15.5 µM
